# Assay results taken from patent US8461339B2, “Pharmaceutical compounds” (Sentinel Oncology Limited, priority 2008, dated 2013).
# Legend:
# Yes (h) = molecular target: T1, Yes (h) (Homo sapiens, UniProt P07947); assay: Kinase inhibition assay, Yes (h) (Millipore, 33P-ATP filter assay); format: biochemical; details: read-out: IC50 against Yes kinase
# T1 construct: purchased Millipore
# Description: (§1) Compounds of the invention can be screened for activity against a range of protein kinases using the assays set out below. Kinase inhibition assays were carried out by Millipore, Dundee Technology Park, Dundee, UK.
# (§2) In a final reaction volume of 25 μl, Yes (h) (5-10 mU) is incubated with 8 mM MOPS pH 7.0, 0.2 mM EDTA, 0.1 mg/ml poly(Glu, Tyr) 4:1, 10 mM MgAcetate and [γ-33P-ATP] (specific activity approx. 500 cpm/pmol, concentration as required). The reaction is initiated by the addition of the MgATP mix. After incubation for 40 minutes at room temperature, the reaction is stopped by the addition of 5 μl of a 3% phosphoric acid solution. 10 μl of the reaction is then spotted onto a Filtermat A and washed three times for 5 minutes in 75 mM phosphoric acid and once in methanol prior to drying and scintillation counting.
# Flt3 (h) = molecular target: T2, Flt3 (h) (Homo sapiens, UniProt P36888); assay: Kinase inhibition assay, Flt3 (h) (Millipore, 33P-ATP filter assay); format: biochemical
# T2 construct: purchased Millipore
# T2 sequence (P36888 27-993): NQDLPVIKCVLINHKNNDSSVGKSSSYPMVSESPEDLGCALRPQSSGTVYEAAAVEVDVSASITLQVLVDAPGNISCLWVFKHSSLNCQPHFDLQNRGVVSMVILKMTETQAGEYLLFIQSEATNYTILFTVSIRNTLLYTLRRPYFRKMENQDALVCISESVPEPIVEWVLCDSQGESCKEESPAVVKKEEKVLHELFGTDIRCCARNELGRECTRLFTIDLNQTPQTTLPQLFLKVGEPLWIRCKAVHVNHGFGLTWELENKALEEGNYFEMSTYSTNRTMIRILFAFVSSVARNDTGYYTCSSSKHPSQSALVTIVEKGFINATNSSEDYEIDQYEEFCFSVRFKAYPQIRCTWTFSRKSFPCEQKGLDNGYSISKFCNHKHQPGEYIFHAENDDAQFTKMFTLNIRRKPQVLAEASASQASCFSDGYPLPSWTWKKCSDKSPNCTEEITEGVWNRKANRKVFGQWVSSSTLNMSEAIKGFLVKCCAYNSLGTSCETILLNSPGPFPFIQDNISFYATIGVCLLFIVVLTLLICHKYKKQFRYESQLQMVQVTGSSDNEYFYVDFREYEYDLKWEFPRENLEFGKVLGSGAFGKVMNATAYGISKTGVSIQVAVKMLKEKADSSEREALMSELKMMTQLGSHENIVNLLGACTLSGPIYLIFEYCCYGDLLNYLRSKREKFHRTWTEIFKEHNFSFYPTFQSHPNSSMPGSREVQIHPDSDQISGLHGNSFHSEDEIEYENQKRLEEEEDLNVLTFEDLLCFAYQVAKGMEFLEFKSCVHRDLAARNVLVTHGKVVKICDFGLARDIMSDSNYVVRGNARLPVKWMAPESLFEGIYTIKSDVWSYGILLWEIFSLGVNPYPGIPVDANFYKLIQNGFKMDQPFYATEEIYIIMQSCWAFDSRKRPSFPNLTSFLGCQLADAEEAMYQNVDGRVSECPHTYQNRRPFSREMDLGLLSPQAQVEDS
# Description: as §1
# as §2, with “μL, Flt3” for “μl, Yes”, “50 μM EAIYAAPFAKKK,” for “0.1 mg/ml poly(Glu, Tyr) 4:1,”, “[[…]-33P-ATP]” for “[γ-33P-ATP]”, “μL” for “μl”, “P30 filtermat” for “Filtermat A”
# Flt4 (h) = molecular target: T3, Flt4 (h) (Homo sapiens, UniProt P35916); assay: Kinase inhibition assay, Flt4 (h) (Millipore, 33P-ATP filter assay); format: biochemical
# T3 construct: purchased Millipore
# Description: as §1
# as §2, with “μL, Flt4” for “μl, Yes”, “500 μM GGEEEEYFELVKKKK,” for “0.1 mg/ml poly(Glu, Tyr) 4:1,”, “[[…]-33P-ATP]” for “[γ-33P-ATP]”, “μL” for “μl”, “P30 filtermat” for “Filtermat A”
# [1] = tested on: human HT29 colon carcinoma cells; assay: HT29 colony forming assay; format: cell-based; details: HT-29, 240 h, 10 days incubation, colonies counted
# Description: The ability of compounds of the invention to prevent growth of discrete colonies of human HT29 colon carcinoma cells over a 10 day time course can be measured using the following protocol: • 1. HT29 cells (ECACC No. 91072201) are seeded in 24-well plates at a concentration of 75 cells per well and allowed to adhere overnight prior to addition of compound or vehicle control. • 2. Test compounds are prepared from 10 mM DMSO stocks to give a final concentration range of 10 μM, 3 μM, 1 μM, 0.3 μM, 0.1 μM, 0.03 μM, 0.01 μM and vehicle control. The DMSO content is constant at 0.1%. • 3. Test compounds are incubated with the cells for 10 days at 37° C. 5% CO2 in a humidified atmosphere. • 4. Colonies are fixed using Carnoy's Fixative (75% methanol, 25% acetic acid) for 5 minutes, and allowed to air dry. • 5. Colonies are stained using 0.4% (w/v) crystal violet for 2 minutes. • 6. Colonies (containing more than 50 cells) are counted by eye and data analysed using a 4-parameter logistic equation in GraphPad Prism.
# HCT116 cells = assay: Anti-proliferative activity, Alamar Blue assay; format: cell-based; details: Homo sapiens, HCT-116, 72 h incubation, read-out: cell proliferation IC50
# Description: The anti-proliferative activities of compounds of the invention are determined by measuring the ability of the compounds to inhibition of cell growth in a number of cell lines. Inhibition of cell growth is measured using the Alamar Blue assay
# The following protocol was used: • 1) HT29, HCT116 or Colo205 cells were seeded at an appropriate density and allowed to adhere overnight. • 2) Test compounds were prepared from 10 mM DMSO stocks to give a final concentration range as shown on the graphs. DMSO was constant throughout each experiment. • 3) Test compounds were incubated with the cells for 72 h at 37° C. 5% CO2 in a humidified atmosphere. • 4) Alamar blue 10% (v/v) was then added and incubated for a further 6 h, and fluorescent product detected using the BMG FLUOstar plate reader. • 5) Data was analysed using a 4-parameter logistic equation in Graph Pad Prism.
# KDR (h) = molecular target: T4, KDR (h) (Homo sapiens, UniProt P35968); assay: Kinase inhibition assay, KDR (h) (Millipore, 33P-ATP filter assay); format: biochemical; details: read-out: IC50 against KDR kinase
# T4 construct: purchased Millipore
# Description: as §1
# as §2, with “μL, KDR” for “μl, Yes”, “0.33 mg/mL myelin basic protein,” for “0.1 mg/ml poly(Glu, Tyr) 4:1,”, “Mg Acetate” for “MgAcetate”, “μL” for “μl”, “P30 filtermat” for “Filtermat A”
# T3 sequence (P35916 25-1363): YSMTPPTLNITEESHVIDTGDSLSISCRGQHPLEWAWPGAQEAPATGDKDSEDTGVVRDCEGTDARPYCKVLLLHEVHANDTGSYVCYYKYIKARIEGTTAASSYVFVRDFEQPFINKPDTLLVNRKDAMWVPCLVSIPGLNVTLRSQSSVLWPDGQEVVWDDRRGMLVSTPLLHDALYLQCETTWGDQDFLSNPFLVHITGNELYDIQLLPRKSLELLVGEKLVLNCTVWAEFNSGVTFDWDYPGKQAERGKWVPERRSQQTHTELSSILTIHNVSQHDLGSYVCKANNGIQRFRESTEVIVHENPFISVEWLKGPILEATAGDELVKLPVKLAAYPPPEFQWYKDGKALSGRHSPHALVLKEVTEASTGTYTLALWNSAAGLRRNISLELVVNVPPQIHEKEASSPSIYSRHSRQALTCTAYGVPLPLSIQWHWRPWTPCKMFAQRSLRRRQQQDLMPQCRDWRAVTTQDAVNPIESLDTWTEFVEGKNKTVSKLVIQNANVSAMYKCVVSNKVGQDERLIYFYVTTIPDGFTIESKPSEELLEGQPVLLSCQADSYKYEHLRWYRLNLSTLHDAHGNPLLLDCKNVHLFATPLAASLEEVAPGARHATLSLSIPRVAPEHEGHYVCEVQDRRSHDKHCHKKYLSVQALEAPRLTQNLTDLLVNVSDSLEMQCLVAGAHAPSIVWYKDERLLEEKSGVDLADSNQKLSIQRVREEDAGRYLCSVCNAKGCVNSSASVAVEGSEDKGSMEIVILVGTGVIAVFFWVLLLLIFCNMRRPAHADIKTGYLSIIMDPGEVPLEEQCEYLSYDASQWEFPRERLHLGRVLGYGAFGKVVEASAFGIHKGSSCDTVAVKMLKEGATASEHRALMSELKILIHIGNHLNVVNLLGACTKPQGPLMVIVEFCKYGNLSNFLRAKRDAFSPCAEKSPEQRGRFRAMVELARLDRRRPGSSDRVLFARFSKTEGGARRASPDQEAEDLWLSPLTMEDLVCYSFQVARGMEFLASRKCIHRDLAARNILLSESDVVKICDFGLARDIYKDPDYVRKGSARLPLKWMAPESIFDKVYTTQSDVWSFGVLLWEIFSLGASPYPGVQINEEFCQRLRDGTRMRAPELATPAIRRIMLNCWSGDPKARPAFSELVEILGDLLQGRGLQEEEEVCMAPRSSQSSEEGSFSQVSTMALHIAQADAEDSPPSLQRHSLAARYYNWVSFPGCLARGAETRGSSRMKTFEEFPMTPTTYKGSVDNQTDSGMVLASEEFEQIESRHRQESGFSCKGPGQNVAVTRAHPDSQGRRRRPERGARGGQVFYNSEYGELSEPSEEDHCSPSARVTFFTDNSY
# T1 sequence (P07947 whole entry): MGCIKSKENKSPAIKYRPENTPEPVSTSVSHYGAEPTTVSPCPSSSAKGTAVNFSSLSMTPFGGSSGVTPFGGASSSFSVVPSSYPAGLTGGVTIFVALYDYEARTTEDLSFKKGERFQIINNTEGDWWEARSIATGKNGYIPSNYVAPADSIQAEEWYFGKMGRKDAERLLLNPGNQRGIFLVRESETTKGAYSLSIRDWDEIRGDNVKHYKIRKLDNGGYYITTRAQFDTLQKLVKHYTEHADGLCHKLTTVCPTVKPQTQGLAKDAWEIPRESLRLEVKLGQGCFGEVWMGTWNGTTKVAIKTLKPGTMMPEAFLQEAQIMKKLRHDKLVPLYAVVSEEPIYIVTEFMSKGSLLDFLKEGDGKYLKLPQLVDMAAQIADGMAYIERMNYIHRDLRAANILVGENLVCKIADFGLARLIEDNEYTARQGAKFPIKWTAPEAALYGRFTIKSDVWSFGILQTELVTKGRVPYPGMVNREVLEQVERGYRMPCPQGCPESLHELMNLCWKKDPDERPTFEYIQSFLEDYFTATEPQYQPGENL
# T4 sequence (P35968 20-1356): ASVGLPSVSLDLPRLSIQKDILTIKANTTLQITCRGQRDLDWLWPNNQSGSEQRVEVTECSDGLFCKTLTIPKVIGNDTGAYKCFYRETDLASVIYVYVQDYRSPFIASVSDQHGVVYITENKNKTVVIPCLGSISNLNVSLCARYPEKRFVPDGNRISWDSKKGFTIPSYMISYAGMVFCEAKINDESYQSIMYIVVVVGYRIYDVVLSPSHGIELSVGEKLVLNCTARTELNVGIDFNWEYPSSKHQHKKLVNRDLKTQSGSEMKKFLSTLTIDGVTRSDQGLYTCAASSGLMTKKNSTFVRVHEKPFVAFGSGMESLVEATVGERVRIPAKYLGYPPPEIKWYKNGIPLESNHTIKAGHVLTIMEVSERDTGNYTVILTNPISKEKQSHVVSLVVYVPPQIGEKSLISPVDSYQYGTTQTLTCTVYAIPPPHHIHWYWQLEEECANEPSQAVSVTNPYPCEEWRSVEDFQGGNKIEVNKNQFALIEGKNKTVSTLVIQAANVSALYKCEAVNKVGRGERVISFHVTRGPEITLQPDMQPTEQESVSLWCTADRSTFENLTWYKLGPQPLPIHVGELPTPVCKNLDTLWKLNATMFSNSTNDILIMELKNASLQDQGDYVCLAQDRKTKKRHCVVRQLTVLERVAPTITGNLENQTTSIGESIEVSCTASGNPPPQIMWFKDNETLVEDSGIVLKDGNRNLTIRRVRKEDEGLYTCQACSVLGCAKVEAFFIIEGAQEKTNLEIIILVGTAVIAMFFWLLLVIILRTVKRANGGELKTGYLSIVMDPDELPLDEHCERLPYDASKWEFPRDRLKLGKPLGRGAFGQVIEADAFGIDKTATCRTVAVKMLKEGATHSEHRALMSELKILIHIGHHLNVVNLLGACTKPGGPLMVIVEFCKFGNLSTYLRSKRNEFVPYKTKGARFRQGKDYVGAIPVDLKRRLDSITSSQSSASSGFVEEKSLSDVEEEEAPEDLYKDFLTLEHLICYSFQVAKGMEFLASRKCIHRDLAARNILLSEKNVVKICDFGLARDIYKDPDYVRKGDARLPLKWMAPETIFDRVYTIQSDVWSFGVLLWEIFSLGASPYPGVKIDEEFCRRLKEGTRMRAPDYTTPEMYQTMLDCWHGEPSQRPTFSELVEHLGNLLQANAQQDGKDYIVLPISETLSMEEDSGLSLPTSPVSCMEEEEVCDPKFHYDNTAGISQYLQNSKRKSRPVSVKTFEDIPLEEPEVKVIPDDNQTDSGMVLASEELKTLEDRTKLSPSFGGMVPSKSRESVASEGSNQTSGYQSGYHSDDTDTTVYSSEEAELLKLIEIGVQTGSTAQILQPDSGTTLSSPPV
IC50 (Yes (h)) [nM],IC50 (Flt3 (h)) [nM],IC50 (Flt4 (h)) [nM],IC50 [1] [nM],IC50 (HCT116 cells) [nM],IC50 (KDR (h)) [nM],Structure (SMILES)
< 5000,< 100,< 500,1380,< 25000,< 5000,"c1ccc2cc(Nc3cc(CN4CCCC4)ccn3)ncc2c1 [Example 1, Isoquinolin-3-yl-(4-pyrrolidin-1-ylmethyl-pyridin-2-yl)-amine]"
,< 100,> 100,,,,"Clc1ccc2cc(Nc3cc(CN4CCCC4)ccn3)ncc2c1 [Example 14, 7-Chloroisoquinolin-3-yl-(4-pyrrolidin-1-ylmethyl-pyridin-2-yl)-amine]"
,< 100,< 100,,,,"COc1ccc2cnc(Nc3cc(CN4CCCC4)ccn3)cc2c1 [Example 17, (6-Methoxy-isoquinolin-3-yl)-(4-pyrrolidin-1-ylmethyl-pyridin-2-yl)-amine]"
,< 100,< 100,,,,"Fc1ccc2cc(Nc3cc(CN4CCCC4)ccn3)ncc2c1 [Example 18, 7-Fluoroisoquinolin-3-yl-(4-pyrrolidin-1-ylmethyl-pyridin-2-yl)-amine]"
,< 100,< 100,,,,"CNC(=O)N1CCN(Cc2ccnc(Nc3cc4ccccc4cn3)c2)CC1 [Example 19, 4-[2-(Isoquinolin-3-ylamino)-pyridin-4-ylmethyl]-piperazine-1-carboxylic acid methylamide]"
,< 100,< 100,,,,"CN(C)C(=O)N1CCN(Cc2ccnc(Nc3cc4ccccc4cn3)c2)CC1 [Example 20, 4-[2-(Isoquinolin-3-ylamino)-pyridin-4-ylmethyl]-piperazine-1-carboxylic acid dimethylamide]"
,< 5000,< 500,,,,"c1ccc2cc(Nc3cc(CN4CCNCC4)ccn3)ncc2c1 [Example 21B, Isoquinolin-3-yl-(4-piperazin-1-ylmethyl-pyridin-2-yl)-amine]"
,< 100,< 500,,,,"NC(=O)N1CCN(Cc2ccnc(Nc3cc4ccccc4cn3)c2)CC1 [Example 21C, 4-[2-(Isoquinolin-3-ylamino)-pyridin-4-ylmethyl]-piperazine-1-carboxylic acid amide]"
,< 100,< 500,,,,"CC(=O)N1CCN(Cc2ccnc(Nc3cc4ccccc4cn3)c2)CC1 [Example 22, 1-[4-[2-(Isoquinolin-3-ylamino)-pyridin-4-ylmethyl]-piperazin-1-yl]-ethanone]"
,< 100,< 100,,,,"O=C(CO)N1CCN(Cc2ccnc(Nc3cc4ccccc4cn3)c2)CC1 [Example 23B, 2-Hydroxy-1-{4-[2-(isoquinolin-3-ylamino)-pyridin-4-ylmethyl]-piperazin-1-yl}-ethanone]"
